Assay results reported in publication PMC7268155 (F1000Research, 2020).
Where a name gives a salt, the structure may show the parent alone.

Experiments:
[1] = in vitro; details: human, Viability at 10µM (MTT viability)
[2] = system: Ebola virus replication (trVLP); assay: microbe, parasite or virus in culture; format: cell-based, Ebola Zaire; details: for inhibition at 10 µM / IC50: Zaire ebolavirus, HEK-293T; for inhibition at 10 µM: read-out: Inhibition at 10µM (percent inhibition of trVLP replication); for IC50: read-out: IC50 to inhibit Ebola virus (trVLP) replication
[3] = system: HEK-293T cells; details: for Viability at 10µM (MTT viability): human
[4] = system: Leishmania spp.; details: cited from earlier work
[5] = system: Ebola virus; details: cited from earlier work
[6] = system: Plasmodium; details: cited from earlier work
[7] = system: Ebola virus disease; details: mouse, in vivo; cited from earlier work

SMILES	viability at 10 µM [1]	inhibition at 10 µM [2]	inhibitory activity in trVLP assay (in words) [2]	further results
N#C/C=C/c1ccc2ccccc2n1 [2CNQ]	88 ± 3.63%	3.07 ± 8.34%	–	–
O=C(O)/C=C/c1ccc2ccccc2n1 [2COOHQ]	88.5 ± 1.54%	30.6 ± 6.15%	strongly reduced the antiviral inhibition	toxicity / cell viability (in words) [3]: good cell viability
NC/C=C/c1ccc2ccccc2n1 [2NH2Q]	81%	89%	having inhibitory activity	Viability at 10µM (MTT viability) [3]: 81.10± 2.09%; Inhibition at 10µM (percent inhibition of trVLP replication) [2]: 89.74± 6.53%; IC50 [2]: 4.66 µM
OC/C=C/c1ccc2ccccc2n1 [2OHQ]	31%	89%	having inhibitory activity	Viability at 10µM (MTT viability) [3]: 31.15± 1.27%; Inhibition at 10µM (percent inhibition of trVLP replication) [2]: 89.69± 4.09%; activity against Leishmania [4]: in vitro and in vivo activities
CCCc1ccc2ccccc2n1 [2PQSel]	97.6 ± 2.06%	10.8 ± 32.4%	–	activity against Leishmania [4]: in vitro and in vivo activities; antileishmanial activity [4]: antileishmanial activity
CCCCCc1ccc2ccccc2n1 [2PentQ]	–	–	–	Viability at 10µM (MTT viability) [3]: 103.48± 0.99%; Inhibition at 10µM (percent inhibition of trVLP replication) [2]: -6.39± 9.15%
OCCCCCCCCCCCCCCCCc1ccc2ccccc2n1 [2Q16OH]	74 ± 0.75%	-124 ± 30.6%	–	–
OC(Cc1ccc2ccccc2n1)c1ccccc1 (centres unmarked) [2QPOH]	88.3 ± 3.26%	-114 ± 92.5%	–	–
C(=C\c1ccc2ccccc2n1)/c1ccc2ccccc2n1 [2QQ]	57.31 ± 0.29%	74.3 ± 13.4%	having inhibitory activity	–
C#CC(O)CCCCCCCCCCCCC#Cc1ccc2ccccc2n1 (centres unmarked) [2Qi15]	109.5 ± 0.25%	93.3 ± 4.94%	having inhibitory activity	–
COc1ccc(/C=C/c2ccc3ccc(C(O)c4cccc(C#N)c4)c(OC)c3n2)cc1OC (centres unmarked) [AS65]	77.51 ± 0.4%	-10.2 ± 65.4%	–	–
CCN(CC)Cc1cc(Nc2ccnc3cc(Cl)ccc23)ccc1O [Amodiaquine, amodiaquine dihydrochloride dihydrate, reference compound]	87.7 ± 1%	97.7 ± 10.6%	significant reductions in luciferase activity	inhibitory effects in pseudo-type entry assay [5]: inhibitory effects; antiplasmodial activity [6]: antiplasmodial activity; toxicity / cell viability (in words) [3]: without significant toxicity; IC50 [2]: 1.45 µM
CCCCCc1ccc2ccccc2n1 [BS460]	107.5 ± 0.59%	–	–	antiplasmodial activity [6]: antiplasmodial activity; Inhibition at 10µM (percent inhibition of trVLP replication) [2]: 4.04± 44.15%
CCN(CC)CCCC(C)Nc1ccnc2cc(Cl)ccc12 (centres unmarked) [Chloroquine, Chloroquine diphosphate, reference compound]	106 ± 1.24%	92.2 ± 6.23%	significant reductions in luciferase activity	antiplasmodial activity [6]: antiplasmodial activity; IC50 [2]: 3.95 µM; protection against Ebola virus disease [7]: protective
Cc1ccc2ccc(Br)c(O)c2n1 [DD1]	59.69 ± 0.03%	90.5 ± 8.32%	having inhibitory activity	–
Cc1ccc2ccc(C(=O)NCc3ccc(F)cc3)c(O)c2n1 [DD2]	77 ± 4.78%	80.8 ± 1.38%	having inhibitory activity	–
COc1cc(Cc2c(C)nc3ccccc3c2C(=O)O)c(Cl)c2c(C)ccnc12 [DD3]	105 ± 2.54%	-156 ± 97.3%	–	–
COc1ccc(Cl)c2c(C)ccnc12 [DD4]	90.1 ± 1.64%	49.7 ± 1.17%	–	–
Cc1ccnc2c(O)ccc(Cl)c12 [DD5]	51.4 ± 1.31%	-66.5 ± 17.8%	–	–

SMILES	viability at 10 µM [1]	inhibition at 10 µM [2]	inhibitory activity in trVLP assay (in words) [2]	further results
O=C(O)c1ccc2ccc(/C=C/c3cccnc3)nc2c1O [DD6]	96.7 ± 2.01%	-8.49 ± 18.6%	–	–
Cc1ccc2c(C=O)cc(C=O)c(O)c2n1 [DD7]	90.3 ± 1.64%	-31.6 ± 80.9%	–	–
CCn1cc(C(=O)O)c(=O)c2ccc(/C=C/c3ccc(O)c(O)c3)nc21 [DD8]	91.54 ± 0.41%	-74 ± 101%	–	–
CCCCOC(=O)c1ccc2ccc(/C=C/c3cc(OC)c(O)c([N+](=O)[O-])c3)nc2c1O [FS48]	81.5 ± 0.97%	-8.41 ± 60.4%	–	–
CC(=O)Nc1ccc(/C=C/c2ccc3ccc(C(=O)O)c(O)c3n2)cc1 [FZ49]	72.7 ± 1.22%	21.8 ± 28.4%	–	–
O=C(O)c1ccc2ccc(/C=C/c3ccc([N+](=O)[O-])cc3)nc2c1O [FZ142]	102 ± 1.39%	63.1 ± 2.64%	–	–
Oc1cccc2ccc(/C=C/c3ccc4cccc(O)c4n3)nc12 [KHD288]	62.7 ± 0.72%	-8.41 ± 60.4%	–	–
N#Cc1ccc2ccc(/C=C/c3ccc(O)c(O)c3)nc2c1O [KHD291]	71.17 ± 0.12%	-68.1 ± 58.1%	–	–
O=C(c1ccc([N+](=O)[O-])cc1)c1ccc2ccc(/C=C/c3ccc(O)c(O)c3)nc2c1O [MBN87]	70.5 ± 0.78%	-17.9 ± 51.8%	–	–
O=C(c1ccc(F)c(F)c1)c1ccc2ccc(/C=C/c3ccc(O)c(O)c3)nc2c1O [MBN91]	43.5 ± 0.73%	81.8 ± 8.8%	having inhibitory activity	–
CCCCCCCCC(=O)c1ccc2ccc(/C=C/c3ccc(O)c(O)c3)nc2c1O [MBN111]	42.5 ± 4.97%	-48.9 ± 87.8%	–	–
Cc1ccc2ccc(C(=O)c3ccc([N+](=O)[O-])cc3)c(O)c2n1 [MBN115]	77.1 ± 0.93%	–	–	–
O=C(c1ccccn1)c1ccc2ccc(/C=C/c3ccc(O)c(O)c3)nc2c1O [MBN132]	105 ± 1.39%	-10.4 ± 57.7%	–	–
Cc1ccc(C(=O)c2ccc3ccc(/C=C/c4ccc(O)c(O)c4)nc3c2O)cc1[N+](=O)[O-] [MBN140]	67.6 ± 0.73%	-68.1 ± 58.1%	–	–
O=C(NCc1ccc(O)c(O)c1)c1ccc2cccc(C(=O)O)c2n1 [MD20]	108.3 ± 0.56%	-124 ± 93.4%	–	–
O=[N+]([O-])c1cccc(-c2cc(Br)c(O)c3nc(/C=C/c4ccc(O)c(O)c4)ccc23)c1 [MD823]	58.9 ± 1.59%	76.2 ± 3.16%	having inhibitory activity	–
COc1ccc(CNC(=O)Nc2ccc3ccc(C(=O)O)c(O)c3n2)cc1 [TOF401]	106 ± 1.08%	-44.6 ± 11.9%	–	–
O=C(CC(=O)c1ccc2ccc(C(=O)O)c(O)c2n1)c1ccccc1 [TOF411]	104.9 ± 0.6%	71.04 ± 0.67%	having inhibitory activity	–
C(/C=C/c1ccc2ccccc2n1)=C\c1ccccc1 [XF906]	104 ± 1.65%	0.21 ± 20.3%	–	–
